Source: US11806393B2, “Flavivirus peptide sequences, epitopes, and methods and uses thereof” (priority 2017, dated 2023)

Key:
Format in all cases: cell-based, mouse
[1] = tested on: CD8+ T cells; assay: IFNγ ELISPOT, DENV2 S221-infected Ifnar-/- HLA-B*0702 transgenic mice; conditions: HLA-B*0702 mice, 7 days after 2×10^4 FFU DENV2 S221
Experimental: (§1) Two ZIKV strains, MR766 (Uganda, 1947) and FSS13025 (Cambodia, 2010), were obtained from the World Reference Center for Emerging Viruses and Arboviruses (WRCEVA). The mouse-adapted DENV2 strain S221 is a triple-plaque purified clone derived from DENV2 D2S1038. Both ZIKV and DENV2 were amplified in C6/36 mosquito cells, and viral titers were measured using baby hamster kidney (BHK)-21 cell-based focus forming assay (FFA). For epitope screening, 5-week old mice (female or male) were infected retro-orbitally (R.O.) with either 1×102 FFU of ZIKV FSS13025 or ZIKV MR766, or 2×10^4 FFU of DENV2 S221 in 200 μl 10% FBS/PBS. Seven days after infection, CD8^+ T cells were isolated from splenocytes and used for ELISPOT assay, while the splenocytes were directly used for ICS assay. Additionally, 5-week old mice were inoculated I.P. with 2×10^3 FFU of DENV2 S221 for 4 weeks.
(§2) CD8^+ T cells were isolated from splenocytes using magnetic bead positive selection (Miltenyi Biotec, Germany) 7 days after virus infection. 2×10^5 CD8^+ T cells were stimulated with 1×10^5 LPS-blasts loaded with 10 μg of individual peptide in 96-well flat-bottom plates (IMMOBILON™-P; Millipore, Bedford, Mass.) that were coated with anti-IFNγ mAb (clone AN18; Mabtech, Stockholm, Sweden) in triplicate. Concanavalin A (ConA) was used as positive control. After 20 hours of incubation, biotinylated anti-mouse IFNγ mAb (R4-6A2; Mabtech), followed by ABC peroxidase (Vector Laboratories, Burlingame, Calif., USA) and then 3-amino-9-ethylcarbazole (Sigma-Aldrich, St. Louis, Mo., USA) were added into the wells. […] A peptide inducing a magnitude of >500 SFCs/10^6 CD8^+ T cells was considered as an immunodominant peptide.
The following results are with respect to FIG. 14A and FIG. 14B, where Ifnar^−/− HLA-B*0702 transgenic mice were infected R.O. with 2×10^4 FFU of DENV2 strain S221 for 7 days. CD8^+ T cells isolated from splenocytes were stimulated with each of the 37 ZIKV epitopes identified via IFNγELISPOT to perform (FIG. 14A) IFNγELISPOT and (FIG. 14B) ICS assay. Data represent the average of two independent IFNγELISPOT experiments and two independent ICS experiments (n=7 mice) and are expressed as mean±SEM. Dotted line corresponds to the cutoff value. *, P<0.05.

[2] = tested on: CD8+ T cells; assay: IFNγ ELISPOT, ZIKV-infected Ifnar-/- HLA-B*0702 transgenic mice; conditions: HLA-B*0702 mice; for SFC/10^6 CD8+ T cells, MR766: 7 days after 1×10^2 FFU ZIKV MR766
Experimental: as §1, §2
Two independent experiments performed in triplicate were averaged and the error bars represent the SEM. The data are expressed as the mean number of spot forming cells (SFC) per 10^6 CD8^+ T cells. The criteria for positivity were net SFC per 10^6 cells of >20, and a stimulation index of >2.0 when compared with the negative control. Dotted lines represent the cutoff value. * Indicates a positive response. […] ConA denotes Concanavalin A.

[3] = tested on: CD44+ CD4+ T cells; assay: ICS, ZIKV SD001-infected Ifnar1-/- HLA-DRB1*0101 mice; conditions: for cytokines produced by ZIKV-primed CD4+ T cells on peptide stimulation: ZIKV SD001, day 7
Experimental: Ifnar1^−/− HLA-DRB1*0101 mice were infected retro-orbitally with 1×10^2 FFU of ZIKV strain SD001 for 7 days. Splenocytes were stimulated in vitro with the indicated ZIKV-derived HLA-DRB1*0101-binding peptides for 6 h, and the frequency of CD44^+ CD4^+ T cells producing IFNγ, TNF, or IFNγ plus TNF (A), IL-2 (B), and IL-17 (C) were detected using the ICS assay. Data represent the mean±s.e.m. of four independent experiments (n=3-5 mice/experiment; total 16 mice). *P<0.05, **P<0.01, ***P<0.001, ****P<0.0001 by two-tailed Mann-Whitney test. Negative and positive refer to cells incubated alone or with PMA/ionomycin, respectively. […]
(§3) For the 30-peptide epitope screen, 5-week-old female or male mice were infected retro-orbitally (r.o.) with either 1×10^2 focus-forming units (FFU) of ZIKV SD001 or 2×10^3 FFU of DENV2 S221 in 200 μl of 10% fetal bovine serum in phosphate-buffered saline (FBS/PBS). Seven days after infection, spleens were removed and single-cell splenocyte suspensions were prepared. A total of 1×10^6 splenocytes was plated in each well of a 96-well U-bottom plate and stimulated with individual peptides (20 μg crude peptide per well) for 6 h. One hour into the incubation, brefeldin A (GolgiPlug, BD Biosciences) was added to the cells. Positive and negative controls were splenocytes stimulated with phorbol-12-myristate-13-acetate (PMA, 0.1 μg/ml) and ionomycin (1 μg/ml) or incubated alone, respectively.
(§4) After incubation of splenocytes with peptides or PMA/ionomycin, cells were harvested, washed, and incubated with Fc Block (CD16/CD32 mAb 2.4G2, BD Biosciences), followed by staining with fixable Live/Dead blue viability stain (Life technologies) and the following antibodies: PerCP-Cy5.5-conjugated anti-CD3 mAb (clone 145-2C11, Tonbo), APC-eFluor780-conjugated anti-CD4 mAb (clone GK1.5, Invitrogen), Brilliant Violet (BV) 785-conjugated anti-CD44 mAb (clone IMT, Biolegend), PE-conjugated anti-CD11a (clone M17/4, Biolegend), BV605-conjugated anti-CD49d (clone 9C10(MFR4.B, Biolegend), PE-conjugated anti-CD25 mAb (clone PC61, Biolegend), PE-conjugated or biotin-conjugated anti-CD185 mAb (CXCR5, clone SPRC15; Invitrogen), BV 605-conjugated anti-[…] mAb (PD1, clone 29F.1A12; Biolegend), and/or BV 421-conjugated streptavidin (#405225, Biolegend). Cells were then fixed and permeabilized using Cytofix/Cytoperm solution (BD Biosciences), followed by staining with FITC-conjugated anti-IFNγ mAb (clone XMG1.2, Tonbo), Alexa Fluor 700- or APC-conjugated anti-TNF mAb (clone MP6-XT22, eBioscience), PE-, BV 421-, or BV 711-conjugated anti-IL-2 mAb (clone JES6-5H4, Biolegend), APC-conjugated anti-IL-4 mAb (clone 11B11, Biolegend), PE-conjugated anti-IL-5 mAb (clone TRFK5, eBioscience), BV510-conjugated anti-IL-17A mAb (clone 17B7, eBioscience), and/or Alexa Fluor 700-conjugated anti-FoxP3 mAb (clone FJK-16S, eBioscience). Data were collected using an LSR Fortessa flow cytometer (BD Biosciences) and analyzed using FlowJo software X 10.0.7 (Tree Star).

[4] = tested on: CD44+ CD4+ T cells; assay: ICS, naive or DENV2-immune Ifnar1-/- HLA-DRB1*0101 mice challenged with ZIKV; conditions: for CD4+ T cell response to peptide: DENV2-immune mice; for CD4+ T cell response to peptide / expansion of peptide-reactive CD4+ T cells: day 7 after ZIKV challenge; for expansion of peptide-reactive CD4+ T cells: naive mice
From the text: Ifnar1−/−HLA-DRB1*0101 mice were primed intraperitoneally with 2×103 FFU of DENV2 S221 for 4 weeks. Naïve mice and DENV2-immune mice were challenged retro-orbitally with 1×10^4 FFU of ZIKV strain SD001 for 3 or 7 days. Splenocytes were stimulated in vitro with the indicated ZIKV-specific and DENV2/ZIKV-cross-reactive epitopes. The frequency of CD44+ CD4+ T cells producing IFNγ, IFNγ plus TNF, or IL-2 were detected using the ICS assay. (E) The combined data for positive peptide responses in (FIGS. 27A-27D). Numbers in parentheses indicate the number of positive peptides. Data represent the mean±s.e.m. of three or four independent experiments, with a total of 9 mice/group for A and C, 14/group for B, and 15/group for D. *P<0.05, **P<0.01, ***P<0.001, ****P<0.0001 by two-tailed Mann-Whitney test. Negative and positive refer to cells incubated alone or with PMA/ionomycin, respectively.
Five-week-old female or male mice were inoculated intraperitoneally (i.p.) with 2×10^3 FFU of DENV2 S221. […] Positive and negative controls were included in all experiments.
as §4

[5] = tested on: CD44+ CD4+ T cells; assay: ICS, DENV2 S221-infected Ifnar1-/- HLA-DRB1*0101 mice; conditions: for cross-reactive response by DENV2-primed CD4+ T cells / cytokines produced by DENV2-primed CD4+ T cells on peptide stimulation: DENV2 S221, day 7
Experimental: Ifnar1^−/− HLA-DRB1*0101 mice were infected intraperitoneally with 2×10^3 FFU of DENV2 strain […] for 7 days. Splenocytes were stimulated in vitro with the indicated ZIKV-derived HLA-DRB1*0101-binding peptides for 6 h. The frequency of CD44^+ CD4^+ T cells producing IFNγ, TNF, or IFNγ plus TNF (A) or IL-2 (B) were detected using the ICS assay. Data represent the mean±s.e.m. of three independent experiments (n=3-4 mice/experiment; total 10 mice). *P<0.05, **P<0.01, ***P<0.001, ****P<0.0001 by two-tailed Mann-Whitney test. Negative and positive refer to cells incubated alone or with PMA/ionomycin, respectively.
as §3, §4

[6] = 7 days after ZIKV SD001, 6 h stimulation
[7] = 7 days after DENV2 S221, 6 h stimulation

Sequence | SFC/10^6 CD8+ T cells, S221 [1] | SFC/10^6 CD8+ T cells, MR766 [2] | % CD4+ CD44+ T cells (ZIKV) INFγ+ [3, 6] | % CD4+ CD44+ T cells (ZIKV) INFγ+ TNFα+ [3, 6] | cytokines produced by ZIKV-primed CD4+ T cells on peptide stimulation [3] | identification as Th1 epitope (IFNγ, TNF, IL-2 ICS) ([3]; ZIKV-primed CD4+ T cells) | CD4+ T cell response to peptide [4] | expansion of peptide-reactive CD4+ T cells [4] | also measured
APTQGSASSL [FSS/MR-NS561-70] | 47 SFC/10^6 CD8+ T cells | 98 SFC/10^6 CD8+ T cells |  |  |  |  |  |  | 
FGGLKRLPAGLLLGH [C27-41] |  |  | 0.191% | 0.1% | stimulated IFNγ, TNF, and IL-2 production | Th1 epitopes | increased responses | significant expansion | % CD4+ CD44+ T cells (ZIKV) IL-2+ [3, 6]: 0.08%
FLRFTAIKPSLGLIN [C53-67] |  |  | 0.265% |  | produce only IFNγ | Th1 epitopes | increased responses |  | 
GAAFGVMEALGTLPG [NS3601-NS4A12] |  |  | 0.203% | 0.102% | stimulated IFNγ plus TNF production | Th1 epitopes | increased responses | significant expansion | 
GAAFKSLFGGMSWFS [E450-464] |  |  | 0.183% | 0.078% | stimulated IFNγ plus TNF production | Th1 epitopes | increased responses |  | 
GPMPVTHASA [FSS/MR-NS3427-436] | 136 SFC/10^6 CD8+ T cells | 204 SFC/10^6 CD8+ T cells |  |  |  |  |  |  | SFC/10^6 CD8+ T cells, FSS13025 ([2]; 7 days after 1×10^2 FFU ZIKV FSS13025): 140 SFC/10^6 CD8+ T cells
IKKFKKDLAAMLRII [C81-95] |  |  | 0.19% |  | produce only IFNγ | Th1 epitopes |  | significant expansion | identification as Th17 epitope (IL-17 ICS) ([3]; ZIKV-primed CD4+ T cells): Th17 epitope
KPTVDIEL [FSS/MR-E38-45] | 51 SFC/10^6 CD8+ T cells | 103 SFC/10^6 CD8+ T cells |  |  |  |  |  |  | 
LALIAAFKVRPALLV [NS2A66-80] |  |  | 0.167% | 0.058% | stimulated IFNγ plus TNF production | Th1 epitopes | increased responses | significant expansion | % CD4+ CD44+ T cells (DENV) INFγ+ [5, 7]: 0.39%; % CD4+ CD44+ T cells (DENV) INFγ+ TNFα+ [5, 7]: 0.343%; % CD4+ CD44+ T cells (DENV) TNFα+ [5, 7]: 0.199%; cross-reactive response by DENV2-primed CD4+ T cells [5]: elicited cross-reactive responses; cytokines produced by DENV2-primed CD4+ T cells on peptide stimulation [5]: induced IFNγ-plus TNF-producing cells
RAIWYMWLGARFLEP [NS5222-236] |  |  | 0.607% | 0.333% | stimulated IFNγ, TNF, and IL-2 production | Th1 epitopes | increased responses | significant expansion | % CD4+ CD44+ T cells (DENV) IL-2+ [5, 7]: 0.643%; % CD4+ CD44+ T cells (DENV) INFγ+ [5, 7]: 0.82%; % CD4+ CD44+ T cells (DENV) INFγ+ TNFα+ [5, 7]: 1.451%; % CD4+ CD44+ T cells (DENV) TNFα+ [5, 7]: 0.8%; cross-reactive response by DENV2-primed CD4+ T cells [5]: elicited cross-reactive responses; cytokines produced by DENV2-primed CD4+ T cells on peptide stimulation [5]: induced cells producing IFNγ, TNF, and IL-2; % CD4+ CD44+ T cells (ZIKV) IL-2+ [3, 6]: 0.21%; % CD4+ CD44+ T cells (ZIKV) TNFα+ [3, 6]: 0.571%; CD4+ T cell response (IFNγ, IL-2, IFNγ plus TNF) ([4]; DENV2-primed mice, day 3 after ZIKV challenge): strong response
SPNKYVVNSSTA [FSS/MR-NS4B210-220] | 49 SFC/10^6 CD8+ T cells | 195 SFC/10^6 CD8+ T cells |  |  |  |  |  |  | 
